For this test, the target named is T1, human PAH with the R408W mutation (Homo sapiens, UniProt P00439, R408W).
T1 construct: expressed in transfected cells
T1 sequence (P00439 1-452 R408W): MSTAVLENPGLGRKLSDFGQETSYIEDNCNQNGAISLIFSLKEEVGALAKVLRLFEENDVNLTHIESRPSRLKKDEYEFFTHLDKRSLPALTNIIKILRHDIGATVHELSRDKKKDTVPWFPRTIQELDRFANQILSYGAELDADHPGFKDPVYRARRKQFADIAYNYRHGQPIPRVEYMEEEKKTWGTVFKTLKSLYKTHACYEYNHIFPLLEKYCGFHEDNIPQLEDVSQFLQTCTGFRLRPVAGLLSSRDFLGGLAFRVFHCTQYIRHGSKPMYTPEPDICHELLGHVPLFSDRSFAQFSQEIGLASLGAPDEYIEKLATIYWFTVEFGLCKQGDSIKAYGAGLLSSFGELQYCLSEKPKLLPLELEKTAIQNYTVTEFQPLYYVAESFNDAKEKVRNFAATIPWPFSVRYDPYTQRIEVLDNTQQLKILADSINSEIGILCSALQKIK
Description: Cell Based Phenylalanine Flux Assay.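 Note: after compound treatment, cells received sepiapterin plus isotope-labelled Phenylalanine for 4 hours, then labelled Tyrosine in the medium was quantified, 10-point 2-fold dilution series run in duplicate.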 The note with it: 24 hrs compound incubation, 13C-Tyrosine by LC-MS, average where tested multiple times.

[1] abbreviates: A375 cells expressing human PAH R408W, read-out: AC50.

In patent US20230365592A1 (Agios Pharmaceuticals, Inc., priority 2022, published 2023) one finds AC50 data, which are given here for 26 compounds.

Where two headings read alike, the source gives them in different places.

As to `Cc1cccn2nc([C@H]3c4nc[nH]c4CCN3c3nnc(C4CCC4)o3)cc12` [Example 2480, (R)-2-cyclobutyl-5-(4-(4-methylpyrazolo[1,5-a]pyridin-2-yl)-6,7-dihydro-1H-imidazo[4,5-c]pyridin-5(4H)-yl)-1,3,4-oxadiazole], the AC50 under setting [1] was > 5 µM.
Same read-out and setting: the figure for `Cc1cccn2nc([C@@H]3c4nc[nH]c4CCN3c3nnc(C4CCC4)o3)cc12` [Example 2481, (S)-2-cyclobutyl-5-(4-(4-methylpyrazolo[1,5-a]pyridin-2-yl)-6,7-dihydro-1H-imidazo[4,5-c]pyridin-5(4H)-yl)-1,3,4-oxadiazole] is 1 to 5 µM.
For `FC(F)(F)c1cccn2nc([C@@H]3c4nc[nH]c4CCN3c3nnc(C4CCC4)o3)cc12` [Example 2482, (S)-2-cyclobutyl-5-(4-(4-(trifluoromethyl)pyrazolo[1,5-a]pyridin-2-yl)-6,7-dihydro-1H-imidazo[4,5-c]pyridin-5(4H)-yl)-1,3,4-oxadiazole], the AC50 under setting [1] lay within 1 to 5 µM.
The same measure, in the same setting: the figure for `FC(F)c1cccn2nc([C@@H]3c4nc[nH]c4CCN3c3nnc(C4CCC4)o3)cc12` [Example 2485, (S)-2-cyclobutyl-5-(4-(4-(difluoromethyl)pyrazolo[1,5-a]pyridin-2-yl)-6,7-dihydro-1H-imidazo[4,5-c]pyridin-5(4H)-yl)-1,3,4-oxadiazole] is 1 to 5 µM.
Same read-out and setting: the figure for `FC(F)c1cccc2cc([C@@H]3c4nc[nH]c4CCN3c3nnc(C(F)(F)F)o3)nn12` [Example 2487, (S)-2-(4-(7-(difluoromethyl)pyrazolo[1,5-a]pyridin-2-yl)-6,7-dihydro-1H-imidazo[4,5-c]pyridin-5(4H)-yl)-5-(trifluoromethyl)-1,3,4-oxadiazole] is 1 to 5 µM.
Still for that read-out and setting: then `Cn1cc(-c2nnc(C(=O)N3CCc4[nH]cnc4[C@H]3c3cc4ccc(Br)cn4n3)o2)cn1` [Example 2488, (S)-(4-(6-bromopyrazolo[1,5-a]pyridin-2-yl)-1,4,6,7-tetrahydro-5H-imidazo[4,5-c]pyridin-5-yl)(5-(1-methyl-1H-pyrazol-4-yl)-1,3,4-oxadiazol-2-yl)methanone], with 1 to 5 µM; and `FC(F)(F)c1nnc(N2CCc3[nH]cnc3[C@H]2c2cc3cccc(C(F)(F)F)n3n2)o1` [Example 2491, (S)-2-(trifluoromethyl)-5-(4-(7-(trifluoromethyl)pyrazolo[1,5-a]pyridin-2-yl)-1,4,6,7-tetrahydro-5H-imidazo[4,5-c]pyridin-5-yl)-1,3,4-oxadiazole], with 1 to 5 µM; and `FC(F)(F)c1nnc(N2CCc3[nH]cnc3[C@H]2c2cc3cccc(Cl)n3n2)o1` [Example 2493, (S)-2-(4-(7-chloropyrazolo[1,5-a]pyridin-2-yl)-1,4,6,7-tetrahydro-5H-imidazo[4,5-c]pyridin-5-yl)-5-(trifluoromethyl)-1,3,4-oxadiazole], with 1 to 5 µM.
Consider `O=C(c1cnc(C2CC2)o1)N1CCc2[nH]cnc2[C@H]1c1cc2ccccn2n1` [Example 2496, (S)-(2-cyclopropyloxazol-5-yl)(4-(pyrazolo[1,5-a]pyridin-2-yl)-1,4,6,7-tetrahydro-5H-imidazo[4,5-c]pyridin-5-yl)methanone], for which the AC50 under setting [1] was 1 to 5 µM.
Regarding `Cc1cccn2nc([C@@H]3c4nc[nH]c4CCN3C(=O)c3cnc(-c4ccn(C)n4)o3)cc12` [Example 2499, (S)-(2-(1-methyl-1H-pyrazol-3-yl)oxazol-5-yl)(4-(4-methylpyrazolo[1,5-a]pyridin-2-yl)-1,4,6,7-tetrahydro-5H-imidazo[4,5-c]pyridin-5-yl)methanone], the AC50 under setting [1] was 1 to 5 µM.
The same measure, in the same setting: the figure for `Cc1nnc(C(=O)N2CCc3[nH]cnc3[C@H]2c2cc3c(C)cccn3n2)s1` [Example 2501, (S)-(5-methyl-1,3,4-thiadiazol-2-yl)(4-(4-methylpyrazolo[1,5-a]pyridin-2-yl)-1,4,6,7-tetrahydro-5H-imidazo[4,5-c]pyridin-5-yl)methanone] is 1 to 5 µM; for `Cc1cccn2nc([C@@H]3c4nc[nH]c4CCN3C(=O)c3nc4ccccc4s3)cc12` [Example 2502, (S)-benzo[d]thiazol-2-yl(4-(4-methylpyrazolo[1,5-a]pyridin-2-yl)-1,4,6,7-tetrahydro-5H-imidazo[4,5-c]pyridin-5-yl)methanone] it is 1 to 5 µM; for `Cc1cccn2nc([C@H]3c4nc[nH]c4CCN3C(=O)c3nc4ccccc4s3)cc12` [Example 2503, (R)-benzo[d]thiazol-2-yl(4-(4-methylpyrazolo[1,5-a]pyridin-2-yl)-1,4,6,7-tetrahydro-5H-imidazo[4,5-c]pyridin-5-yl)methanone] it is > 5 µM.
Same read-out and setting: then `Cn1ccc(-c2ncc(C(=O)N3CCc4[nH]cnc4[C@@H]3c3cc4c(F)cccn4n3)o2)n1` [Example 2504, (R)-(4-(4-fluoropyrazolo[1,5-a]pyridin-2-yl)-1,4,6,7-tetrahydro-5H-imidazo[4,5-c]pyridin-5-yl)(2-(1-methyl-1H-pyrazol-3-yl)oxazol-5-yl)methanone], with > 5 µM; and `Cn1ccc(-c2ncc(C(=O)N3CCc4[nH]cnc4[C@H]3c3cc4c(F)cccn4n3)o2)n1` [Example 2505, (S)-(4-(4-fluoropyrazolo[1,5-a]pyridin-2-yl)-1,4,6,7-tetrahydro-5H-imidazo[4,5-c]pyridin-5-yl)(2-(1-methyl-1H-pyrazol-3-yl)oxazol-5-yl)methanone], with 1 to 5 µM; and `Cn1cc(-c2ncc(C(=O)N3CCc4[nH]cnc4[C@H]3c3cc4c(C(F)(F)F)cccn4n3)o2)cn1` [Example 2506, (S)-(2-(1-methyl-1H-pyrazol-4-yl)oxazol-5-yl)(4-(4-(trifluoromethyl)pyrazolo[1,5-a]pyridin-2-yl)-1,4,6,7-tetrahydro-5H-imidazo[4,5-c]pyridin-5-yl)methanone], with 1 to 5 µM.
As for `FC(F)Oc1cccn2nc([C@@H]3c4nc[nH]c4CCN3c3nnc(C4CC4)o3)cc12` [Example 2509, (S)-2-cyclopropyl-5-(4-(4-(difluoromethoxy)pyrazolo[1,5-a]pyridin-2-yl)-1,4,6,7-tetrahydro-5H-imidazo[4,5-c]pyridin-5-yl)-1,3,4-oxadiazole], the AC50 under setting [1] was 1 to 5 µM.
Consider `FC(F)(F)c1cccn2nc([C@@H]3c4nc[nH]c4CCN3c3nnc(-c4cnccn4)o3)cc12` [Example 2510, (S)-2-(pyrazin-2-yl)-5-(4-(4-(trifluoromethyl)pyrazolo[1,5-a]pyridin-2-yl)-1,4,6,7-tetrahydro-5H-imidazo[4,5-c]pyridin-5-yl)-1,3,4-oxadiazole], for which the AC50 under setting [1] was in the range of 1 to 5 µM.
On to `FC(F)(F)c1cccn2nc([C@H]3c4nc[nH]c4CCN3c3nnc(-c4cnccn4)o3)cc12` [Example 2511, (R)-2-(pyrazin-2-yl)-5-(4-(4-(trifluoromethyl)pyrazolo[1,5-a]pyridin-2-yl)-1,4,6,7-tetrahydro-5H-imidazo[4,5-c]pyridin-5-yl)-1,3,4-oxadiazole], for which the AC50 under setting [1] is > 5 µM.
The same measure, in the same setting: the figure for `O=C(c1cnc(-c2cnccn2)o1)N1CCc2[nH]cnc2[C@H]1c1cc2c(F)cccn2n1` [Example 2516, (S)-(4-(4-fluoropyrazolo[1,5-a]pyridin-2-yl)-1,4,6,7-tetrahydro-5H-imidazo[4,5-c]pyridin-5-yl)(2-(pyrazin-2-yl)oxazol-5-yl)methanone] is 1 to 5 µM.
For the compound `O=C(c1cnc(-c2cnccn2)o1)N1CCc2[nH]cnc2[C@@H]1c1cc2c(F)cccn2n1` [Example 2517, (R)-(4-(4-fluoropyrazolo[1,5-a]pyridin-2-yl)-1,4,6,7-tetrahydro-5H-imidazo[4,5-c]pyridin-5-yl)(2-(pyrazin-2-yl)oxazol-5-yl)methanone], under setting [1], the AC50 was > 5 µM.
The compound `CC(C)c1cccn2nc([C@@H]3c4nc[nH]c4CCN3c3nnc(C4CC(F)(F)C4)o3)cc12` [Example 2519, (S)-2-(3,3-difluorocyclobutyl)-5-(4-(4-isopropylpyrazolo[1,5-a]pyridin-2-yl)-1,4,6,7-tetrahydro-5H-imidazo[4,5-c]pyridin-5-yl)-1,3,4-oxadiazole] displayed an AC50 (AC50, A375 cells expressing human PAH R408W) of 1 to 5 µM.
`FC(F)c1cccc2cc([C@@H]3c4nc[nH]c4CCN3c3nnc(-c4cnccn4)o3)nn12` [Example 2521, (S)-2-(4-(7-(difluoromethyl)pyrazolo[1,5-a]pyridin-2-yl)-1,4,6,7-tetrahydro-5H-imidazo[4,5-c]pyridin-5-yl)-5-(pyrazin-2-yl)-1,3,4-oxadiazole]: the AC50 under setting [1] is 1 to 5 µM.
Still for that read-out and setting: the figure for `CC(F)(F)c1nnc(N2CCc3[nH]cnc3[C@H]2c2cc3cccc(C(F)F)n3n2)o1` [Example 2523, (S)-2-(1,1-difluoroethyl)-5-(4-(7-(difluoromethyl)pyrazolo[1,5-a]pyridin-2-yl)-1,4,6,7-tetrahydro-5H-imidazo[4,5-c]pyridin-5-yl)-1,3,4-oxadiazole] is 1 to 5 µM; for `O=C(c1nnc(-c2c(F)cccc2F)o1)N1CCc2[nH]cnc2C1c1cc2ccccn2n1` (centres unmarked) [Example 2524, (5-(2,6-difluorophenyl)-1,3,4-oxadiazol-2-yl)(4-(pyrazolo[1,5-a]pyridin-2-yl)-6,7-dihydro-1H-imidazo[4,5-c]pyridin-5(4H)-yl)methanone] it is 0.5 to 1 µM.
For the compound “(S)-(5-(2-fluoropropan-2-yl)-1,3.4-oxadiazol-2-yl)(4-(7-fluoropyrazolo[1,5-a]pyridin-2-yl)-6,7-dihydro-1H-imidazo[4,5-c(pyridin-5(4H)-yl)methanone [Example 1256]”, where the note is “A375 cells expressing human R408W PAH, read-out: AC50”, the AC50 was < 0.5 µM.
